Test results reported in US20050197343A1, “Utilization of heteroarene carboxamide as dopamine-d3 ligands for the treatment of cns diseases” (priority 2002, published 2005).

What was measured:
[1] = molecular target: T1, D1 receptor (Sus scrofa, UniProt P50130); assay: radio ligand binding assay, D1 receptor, pig striatum membrane homogenates, [3H]SCH 23390; settings: pD1; average of 2-9 experiments in triplicate
T1 construct: native membrane homogenates obtained from the striatum of a pig; from tissue; host or cells: pig striatum
T1 sequence (P50130 whole entry): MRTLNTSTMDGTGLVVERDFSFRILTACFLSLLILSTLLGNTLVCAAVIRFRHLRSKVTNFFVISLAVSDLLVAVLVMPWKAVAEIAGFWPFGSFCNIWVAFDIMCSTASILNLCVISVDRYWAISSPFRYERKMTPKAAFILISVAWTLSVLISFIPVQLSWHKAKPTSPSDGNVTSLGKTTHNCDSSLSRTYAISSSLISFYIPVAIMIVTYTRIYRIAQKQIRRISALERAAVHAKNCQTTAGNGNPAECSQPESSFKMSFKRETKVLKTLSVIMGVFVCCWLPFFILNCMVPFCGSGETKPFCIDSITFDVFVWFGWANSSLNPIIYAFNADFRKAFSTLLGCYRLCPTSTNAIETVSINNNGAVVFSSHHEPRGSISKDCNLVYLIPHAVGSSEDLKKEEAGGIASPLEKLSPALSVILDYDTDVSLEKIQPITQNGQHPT
Experimental: (§1) The biological activities of the compounds of the invention were determined in radio ligand binding assays.

[2] = molecular target: T2, human D2long receptor (Homo sapiens, UniProt P14416); assay: radio ligand binding assay, CHO cell membrane homogenates, [3H]Spiperon, D2long; settings: hD2long; average of 2-9 experiments in triplicate
T2 construct: expressed in transfected cells; host or cells: CHO cells (membrane homogenates)
T2 sequence (P14416 whole entry): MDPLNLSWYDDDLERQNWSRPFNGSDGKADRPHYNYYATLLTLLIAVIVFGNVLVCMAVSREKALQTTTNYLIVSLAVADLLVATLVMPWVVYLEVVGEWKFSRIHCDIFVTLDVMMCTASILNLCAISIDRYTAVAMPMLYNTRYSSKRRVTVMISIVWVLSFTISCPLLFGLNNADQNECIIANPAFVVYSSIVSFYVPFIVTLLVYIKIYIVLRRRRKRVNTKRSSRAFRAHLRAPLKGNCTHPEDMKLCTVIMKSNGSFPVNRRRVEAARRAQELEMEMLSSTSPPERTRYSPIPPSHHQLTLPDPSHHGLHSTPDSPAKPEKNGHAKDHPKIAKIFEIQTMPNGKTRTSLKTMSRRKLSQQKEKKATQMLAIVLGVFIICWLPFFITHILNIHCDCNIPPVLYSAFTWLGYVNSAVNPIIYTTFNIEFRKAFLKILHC
Experimental: as §1

[3] = molecular target: T3, human D2short receptor (Homo sapiens, UniProt P14416); assay: radio ligand binding assay, CHO cell membrane homogenates, [3H]Spiperon, D2short; settings: hD2short; average of 2-9 experiments in triplicate
T3 construct: expressed in transfected cells; host or cells: CHO cells (membrane homogenates)
T3 sequence (P14416 1-414 isoform P14416-2): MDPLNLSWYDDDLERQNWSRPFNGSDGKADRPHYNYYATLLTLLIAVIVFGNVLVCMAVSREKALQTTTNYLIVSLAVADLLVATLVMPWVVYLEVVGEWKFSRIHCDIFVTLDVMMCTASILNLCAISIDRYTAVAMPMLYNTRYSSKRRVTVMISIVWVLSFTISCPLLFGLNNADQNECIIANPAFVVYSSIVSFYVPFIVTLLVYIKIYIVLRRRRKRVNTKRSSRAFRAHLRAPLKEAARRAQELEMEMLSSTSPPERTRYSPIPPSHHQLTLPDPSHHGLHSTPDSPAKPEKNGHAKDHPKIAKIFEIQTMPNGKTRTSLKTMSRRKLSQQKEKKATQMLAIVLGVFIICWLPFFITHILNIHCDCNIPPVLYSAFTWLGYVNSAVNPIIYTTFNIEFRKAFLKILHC
Experimental: as §1

[4] = molecular target: T4, human D4.4 receptor (Homo sapiens, UniProt P21917); assay: radio ligand binding assay, CHO cell membrane homogenates, [3H]Spiperon, D4.4; settings: hD4.4; average of 2-9 experiments in triplicate
T4 construct: expressed in transfected cells; host or cells: CHO cells (membrane homogenates)
T4 sequence (P21917 1-419): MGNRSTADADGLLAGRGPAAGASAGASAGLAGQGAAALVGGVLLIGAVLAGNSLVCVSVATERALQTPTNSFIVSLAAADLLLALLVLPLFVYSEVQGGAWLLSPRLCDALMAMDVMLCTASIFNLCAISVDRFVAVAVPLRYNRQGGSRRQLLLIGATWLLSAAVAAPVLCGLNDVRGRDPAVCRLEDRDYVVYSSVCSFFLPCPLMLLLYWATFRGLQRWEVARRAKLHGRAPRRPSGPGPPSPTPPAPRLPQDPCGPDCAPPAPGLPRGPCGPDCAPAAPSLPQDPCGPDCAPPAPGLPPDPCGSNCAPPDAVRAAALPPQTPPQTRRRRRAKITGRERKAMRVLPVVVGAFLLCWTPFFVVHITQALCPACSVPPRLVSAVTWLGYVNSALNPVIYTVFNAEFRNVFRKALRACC
Experimental: as §1

[5] = molecular target: T5, serotonin receptor 5-HT2 (Sus scrofa, UniProt P50129); assay: radio ligand binding, pig cortex membrane preparations, [3H]Ketanserin with 10 μM Prazosin; settings: p5-HT2; simultaneous incubation with 10 μM of Prazosin
T5 construct: cortex membrane preparations of a pig; from tissue; host or cells: pig cortex
T5 sequence (P50129 whole entry): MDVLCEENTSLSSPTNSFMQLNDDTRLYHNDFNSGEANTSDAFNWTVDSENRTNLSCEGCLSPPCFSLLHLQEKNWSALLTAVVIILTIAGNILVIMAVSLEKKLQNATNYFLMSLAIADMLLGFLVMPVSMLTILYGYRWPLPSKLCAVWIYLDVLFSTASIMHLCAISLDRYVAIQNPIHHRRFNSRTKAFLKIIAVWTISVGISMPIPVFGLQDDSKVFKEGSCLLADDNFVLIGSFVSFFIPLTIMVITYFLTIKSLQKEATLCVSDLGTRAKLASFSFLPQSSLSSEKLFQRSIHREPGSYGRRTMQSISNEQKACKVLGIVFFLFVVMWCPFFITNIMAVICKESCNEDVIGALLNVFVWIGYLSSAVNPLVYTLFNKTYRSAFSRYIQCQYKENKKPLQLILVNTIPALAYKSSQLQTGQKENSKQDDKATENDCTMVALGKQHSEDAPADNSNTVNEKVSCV

[6] = molecular target: T6, serotonin receptor 5-HT1A (Sus scrofa, UniProt A0A4X1UTF5); assay: radio ligand binding, pig cortex membrane preparations, [3H]8-OH-DPAT; settings: read-out: Ki values 5-HT1A; p5-HT1A; [3H]8-OH-DPAT; average of 2 to 6 experiments
T6 sequence (A0A4X1UTF5 1-422): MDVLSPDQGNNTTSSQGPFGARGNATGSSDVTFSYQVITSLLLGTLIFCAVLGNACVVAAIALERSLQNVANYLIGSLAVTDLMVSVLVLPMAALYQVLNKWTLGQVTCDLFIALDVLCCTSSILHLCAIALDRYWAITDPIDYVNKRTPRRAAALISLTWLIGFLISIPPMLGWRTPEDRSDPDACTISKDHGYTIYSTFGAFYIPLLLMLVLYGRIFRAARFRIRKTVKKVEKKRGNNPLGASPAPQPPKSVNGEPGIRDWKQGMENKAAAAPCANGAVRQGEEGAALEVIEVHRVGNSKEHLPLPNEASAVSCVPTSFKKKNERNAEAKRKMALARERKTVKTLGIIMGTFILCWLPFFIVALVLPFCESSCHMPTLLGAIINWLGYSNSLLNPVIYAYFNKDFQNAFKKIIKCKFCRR

[7] = molecular target: α1 receptors; assay: competitive experiment with the α1 selective radio ligand [3H]Prazosin; settings: read-out: Ki values α1 (footnote d); pα1; competitive experiment with [3H]Prazosin
[8] = molecular target: T7, D3 receptor (Homo sapiens, UniProt P35462); assay: radio ligand binding assay, CHO cell membrane homogenates, [3H]Spiperon, D3; set-up: expressed in transfected cells; host or cells: CHO cells (membrane homogenates); settings: for Ki: hD3, average of 2-9 experiments in triplicate, read-out: Ki-values D3
T7 sequence (P35462 whole entry): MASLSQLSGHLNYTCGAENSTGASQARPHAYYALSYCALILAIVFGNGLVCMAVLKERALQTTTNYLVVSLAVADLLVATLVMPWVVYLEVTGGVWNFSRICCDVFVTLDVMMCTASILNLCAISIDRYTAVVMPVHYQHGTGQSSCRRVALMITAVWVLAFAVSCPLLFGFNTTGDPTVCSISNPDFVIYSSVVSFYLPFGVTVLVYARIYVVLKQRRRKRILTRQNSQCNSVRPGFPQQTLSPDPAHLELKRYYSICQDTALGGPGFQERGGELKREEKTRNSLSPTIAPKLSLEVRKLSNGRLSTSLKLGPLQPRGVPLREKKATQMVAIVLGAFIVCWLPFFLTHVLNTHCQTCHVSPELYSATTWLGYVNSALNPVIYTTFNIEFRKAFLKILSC
Experimental: as §1

[9] = molecular target: T7, D3 receptor; assay: mitogenesis assay (intrinsic activity); assay type: cell-based
Text: D3 ligands may show agonistic, antagonistic or partial-agonistic activity on the D3 receptor. The respective intrinsic activities of the compounds of the invention may be measured in mitogenesis assays as described in literature (Hübner, H. et al. J. Med. Chem. 2000, 43, 4563-4569, and Löber, S. Bioorg. Med. Chem. Lett. 2002, 12.17, 2377-2380). Depending on the pathophysiology of the underlying disease, a stronger agonistic, stronger antagonistic or partial-agonistic activity may be desirable. The present invention therefore permits an excellent fine-tuning of the desired activity.
Tests to determine the intrinsic activity of the compounds of the examples were carried out in a mitogenesis assay as described in literature (Hübner, H. et al. J. Med. Chem. 2000, 43, 4563-4569; Löber, S. Bioorg. Med. Chem. Lett. 2002, 12.17, 2377-2380).

EC50 ([9]; curve calculation of the concentration-activity test) [nM] | partial agonistic activity, % of the maximum receptor stimulation ([9]; maximum triggered by the full agonist Quinpirol as reference) [%] | Compound | Ki [1] [nM] | Ki [2] [nM] | Ki [3] [nM] | Ki [4] [nM] | Ki [5] [nM] | Ki [6] [nM] | Ki [7] [nM] | D3 affinity (in words) [8] | Ki [8] [nM] | D3 selectivity D2long/D3 ([8]; ratio of Ki values) | D3 selectivity D2short/D3 ([8]; ratio of Ki values) | D3 selectivity D4.4/D3 ([8]; ratio of Ki values)
 |  | O=C(NCCCCN1CCN(c2cccc(Cl)c2Cl)CC1)c1cc2cc(Br)ccc2o1 [Example 6, N-4-(4-(2,3-dichlorophenyl)piperazine-1-yl)butyl-5-bromo-2-benzo[b]furanylcarbarnide] | 2100 | 10000 | 4800 | 3100 | 540 | 2500 | 1300 | subnanomolar affinity | 3.4 | 2900 | 1400 | 910
0.38 | 49 | COc1ccccc1N1CCN(CCCCNC(=O)c2cc3ccccc3s2)CC1 [Example 1, N-4-(4-(2-methoxyphenyl)piperazine-1-yl)butyl-2-benzo[b]thiophenylcarbamide] |  |  |  |  |  |  | 6.4 |  | 0.23 to 0.57 |  |  | 
